Measurements published in patent US5153175A, “Method of inducing sleep with GHRH complementary peptide compositions” (University of Tennesee Research Corporation, priority 1989, dated 1992).
One block for each substance: values may come before it. Ends that are not written are not given here.

Assays:
rabbits = assay: Biological assay for sleep-promoting activity in rabbits after intracerebroventricular infusion (EEG, body movement, temperature); format: in vivo; conditions: rabbit; for time spent in SWS / time spent in rapid-eye-movement sleep: after administration, vs control
Procedure: Biological assays for sleep-promoting activity were performed on rabbits provided with chronically implanted ventricular guide tubes and four epidural screw electrodes for EEG. The animals were allowed at least one week to recover from surgery prior to their use for assays. Samples for testing were taken up in sterile artificial cerebrospinal fluid and a total of […] solution was infused intraventricularly (ICV) at the rate of 25 ul/min through a No. 26 hypodermic needle inserted through a guide tube. Following the infusion and removal of the infusion probe the animals were left undisturbed for 6-8 hours while EEG and bodily movements were recorded.
Slow wave sleep (SWS) was scored in two ways: (i) by conventional subjective scoring of the duration of SWS from polygraph records and (ii) by digital print-out of integrated mean rectified cortical slow waves (1/2-4 Hz). thus obtaining a measure of the amplitude was well as duration of delta wave EEG activity. Control animals were also assayed at the same time.
Operation and experimental procedure. Adult male New Zealand White Pasteurella-free rabbits, weighing 3-4 kg, were purchased from Myrtle's Rabbitry (Thompson Station, Tenn.). Under ketamine-xylazine (3.5-5.0 mg/kg iv) anesthesia, animals were provided with chronically implanted EEG electrodes, a glass-bead thermistor, and a cerebral ventricular guide tube (Krueger, J.M et al., Am. J. Physiol. 251 (Regulatory Integrative Comp. Physiol. 20): R591-R597, 1986; and Walter J.D. et al., Am. J. Physiol., 250 (Regulatory Integrative Comp. Physiol. 19): R96-R103, 1986). Briefly, stainless steal screws were implanted over the frontal parietal, and occipital cortex; and a small (1 mm diam) 50-k.OMEGA. thermistor (Fenwall Electronics) was placed 3 mm into the parietal cortex. Wires from Amphenol plugs (no. 223-1509) were soldered to the screws for EEG recordings and to the thermistors for brain temperature (Tbr) recordings. The ventricular guide tube was implanted 4 mm lateral to the bregma; during the implantation procedure, pressure at the tip of the infusion needle was monitored and used as an aid to locate the ventricle (See, e.g., Krueger, J.M et al., Am. J. Physiol., 246 (Regulatory Integrative Comp. Physiol. 15): R994-R999, 1984). Dental acrylic (DuzAll) was then used to insulate the leads and to secure the guide tube and EEG/thermistor plugs to the skull. A topical antibiotic (Bacitracin, Lilly) was applied to the incision, and 150,000 U of Duracillin (Lilly) were administered intramuscularly. At least 1 week was allowed for recovery.
Animals were housed in rooms on a 12:12-h light-dark cycle (0600-1800 h light) maintained at 21 ±2° C. The day before an experiment animals were brought to experimental chambers (Hotpack model 352600) for an overnight acclimation period. Each experimental chamber was also kept at 21 ±2° C. on a 12:12-h light-dark cycle. Food and water were available ad libitum at all times. At the top of the recording chamber, BRS/LVE electrical contact swivel was fixed; this allowed the rabbits free movement during recording periods. From the other end of the swivel a cable led to a Grass polygraph model 7D. Before each recording period the rabbits were connected to the recording cable for a 1-h habituation period, but data were not collected during this time.
Rabbits were then briefly taken out of the experimental cages and given the 3'-5' or 5'-3' CP (the "test substance"). [When animals received intracerebroventricular (ICV) injections, appropriate amounts of test substances (0.1-10.0 ul) were diluted to 50 ul with artificial CSF [3 mM KCL, 1.15 mM CaCl2 and 0.96 mM MgCl2 in pyrogen-free saline (PFS), […] NaCl (Abbott)]; these solutions were slowly infused over 2 min. […]

[1] = amino acids added to carboxyl terminal of N-acetyl muramyl-L-alanyl-D-isoglutamine; cited from earlier work
growth hormone release = conditions: relative potency of C-terminal deleted hGHRH fragments; cited from earlier work
lactating holstein cows = conditions: cited from earlier work
rat pituitary gland = conditions: cited from earlier work

behavior (arousable; eat, drink and groom) (rabbits; ICV): behavior was normal | character of the excess sleep (cycling through states of vigilance) (rabbits; ICV): appeared normal | temperatures of the animals (rabbits; ICV): remained normal
Substance: H-DPVNIRAFDDVL-NH2 [3'-5' CP, H-Asp-Pro-Val-Asn-Ile-Arg-Ala-Phe-Asp-Asp-Val-Leu-NH2]
capacity to enhance sleep (rabbits; ICV): have the capacity to enhance sleep | time spent in SWS (rabbits; ICV): significantly more time | time spent in rapid-eye-movement sleep (rabbits; ICV): significantly more time

behavior (arousable; eat, drink and groom) (rabbits; in vivo): behavior was normal | character of the excess sleep (cycling through states of vigilance) (rabbits; in vivo): appeared normal | temperatures of the animals (rabbits; in vivo): remained normal
Substance: H-VEPGSLFLVPLPLLPVHDFVQQFAGI-NH2 [5'-3' CP]
capacity to enhance sleep (rabbits; ICV): have the capacity to enhance sleep | time spent in SWS (rabbits; ICV): significantly more time | time spent in rapid-eye-movement sleep (rabbits; ICV): significantly more time

Substance: N-acetyl-muramyl-L-alanyl-D-isoglutamyl-L-diaminopimelyl alanine
somnogenic activity [1]: somnogenic activity is retained

Substance: hGHRH (1-19): C-terminal deleted GHRH fragment (YADAIFTNSYRKVLGQLSA; Somatoliberin; UniProt P01286 32-50, looked up, fragment)
relative GH-releasing potency (growth hormone release): No activity

Substance: hGHRH (1-24): C-terminal deleted GHRH fragment (YADAIFTNSYRKVLGQLSARKLLQ; Somatoliberin; UniProt P01286 32-55, looked up, fragment)
relative GH-releasing potency (growth hormone release): 0.02%

Substance: hGHRH (1-27): C-terminal deleted GHRH fragment (YADAIFTNSYRKVLGQLSARKLLQDIM; Somatoliberin; UniProt P01286 32-58, looked up, fragment)
relative GH-releasing potency (growth hormone release): 12%

Substance: human GHRH: Growth Hormone Releasing Hormone, hypothalamic peptide which positively regulates the synthesis and secretion of growth hormone (YADAIFTNSYRKVLGQLSARKLLQDIMSRQQGESNQERGARARL; ends and bridges not checked; UniProt P01286 32-75, looked up)
feed to milk conversion (lactating holstein cows): apparent increase | secretion of growth hormone (lactating holstein cows): increases the secretion of growth hormone consistently | GH-stimulating effect (rat pituitary gland): a GH-stimulating effect on the rat pituitary gland
